Measurements reported in patent US5441983A, “Treatment of infection by enveloped virus with calix(N)arene compounds” (Genelabs Incorporated, priority 1992, dated 1995).
Values after ≈ are worked out from the molar mass of the structure shown.

How the values were obtained:
HIV-HXB = test: Inhibition of syncytia formation, HIV-HXB (HTLV-IIIB); settings: for HIV-HXB ED100: complete inhibition of syncytia formation; for EC100: Human immunodeficiency virus 1, 18 h, read-out: HIV-HXB ED100, complete inhibition of syncytia formation
Experimental: (§13) Briefly, cells chronically infected with HTLV-IIIB or RF-II HIV strains were incubated in the presence of serial dilutions of the selected KY compound, then further cocultured with indicator cells. The extent of syncytia formation was scored under phase microscopy.
(§14) Representative calix(n)arene compounds from Table 2 were tested for inhibition of cytopathic effects in cells infected with one of two HTLV-III strains, HTLV-IIIB and RF-II strains, as described in Example 12, and in the subsection above.
(§15) Human CD4^+ indicator cells (VB) and chronically infected H9 cells were maintained in RPMI-1640 medium supplemented with 5% fetal calf serum, 100 Units of penicillin per ml and 100 μg of streptomycin per ml at 37° C. in a humidified incubator containing 7% CO2.
(§16) For the fusion assay, serial dilutions between 1:2 and 1:2^8 of a selected KY compound, 1 mg/ml in PBS were made in a 96 well round bottom plate. The diluted KY compound was transferred to a 96 well flat-bottom plate. To each well was added 25 μg chronically infected H9 cells (at 2×10^6, cells/ml), or cells chronically infected with RF-II strain HIV, followed by incubation at 37° C. for 45 minutes. To each well was then added 25 μl VB cells (about 5×10^4 cells), and the cells and virus isolates were cocultured for 18 hours in a humid 5% CO2 atmosphere.

HSV-2 = test: Plaque reduction assay, HSV-2, Vero cells; type: cell-based, HSV-2 (333); settings: for IC50: Human alphaherpesvirus 2, Vero
Experimental: (§1) used in Table 3 were further tested for activity against HSV infection in
(§2) a plaque reduction assay, as detailed in Example 6. Here Vero cells, after
(§3) overnight incubation, were exposed to serial dilutions of KY compound,
(§4) from 0.625-10 μg/ml, and HSV-1 or HSV-2 virus for two hours. After
(§5) washing to remove drug and extracellular virus, the cells were further
(§6) incubated for 2 days, then stained and counted for plaque formation.
(§7) Percent inhibition was determined by dividing plaques produced by total
(§8) number of plaques in infected, untreated controls. From the concentration
(§9) effect curve of plaque inhibition (expressed as percent of control), the
(§10) concentration of compound required to produce 50% plaque reduction,
(§11) IC50, was determined. The IC50 values for infection by HSV-1 and
(§12) HSV-2 infection is given in the right-hand columns in Table 3. With

HSV-1 [1] = test: Plaque reduction assay, HSV-1, Vero cells; type: cell-based, HSV-1 (Kos-1); settings: plaque reduction, Vero cells; for IC50: Human alphaherpesvirus 1, Vero
Experimental: as §1, §2, §3, §4, §5, §6, §7, §8, §9, §10, §11, §12

HIV-RF-II = test: Inhibition of syncytia formation, HIV-RF-II; settings: for HIV-RF-II ED100: complete inhibition of syncytia formation; for EC100: Human immunodeficiency virus 1, 18 h, read-out: HIV-RF-II ED100, complete inhibition of syncytia formation
Experimental: as §13, §14, §15, §16

HSV-1 [2] = test: Inactivation of purified HSV-1 by compound, plaque number after serial dilution; settings: 10 μg/ml, duplicate
Experimental: In a third study, purified HSV-1 virus suspensions were incubated with KY-1 or the sodium salt thereof, or a control solution for 1 hour, then serially diluted to drug concentrations between 10^1 to 10^-4 μg/ml as described in Example 16. The "X" symbol in the table indicates plaques too numerous to count.
Purified HSV-1 was suspended in RPMI-1640 medium (Gibco Laboratories) containing 2% FCS, penicillin and streptomycin. […] The suspensions were incubated for 1 hour at 37° C., then diluted serially at 10 fold dilutions to final drug concentrations of 10, 10^0, 10^-1, 10^-2, 10^-3 and 10^-4 μg/ml drug concentrations The serially diluted particles were then added to Vero cells for two hours, as in Example 6, and the cells examined for plaques 48 hours later.

SMILES	EC100 (HIV-HXB) [µg/mL]	EC100 (HIV-RF-II) [µg/mL]	also measured
COc1c2c(S(=O)(=O)O)cc3cc(S(=O)(=O)O)c(c(OC)c13)Cc1c(S(=O)(=O)O)cc3cc(S(=O)(=O)O)c(c(OC)c3c1OC)Cc1c(S(=O)(=O)O)cc3cc(S(=O)(=O)O)c(c(OC)c3c1OC)Cc1c(S(=O)(=O)O)cc3cc(S(=O)(=O)O)c(c(OC)c3c1OC)C2 [KY-280]	–	–	HIV-HXB ED100 (HIV-HXB): 16; HSV-2 IC50 (HSV-2): 1 µg/mL; HSV-1 IC50 (HSV-1 [1]): 1.1 µg/mL; HIV-RF-II ED100 (HIV-RF-II): 32
O=C(O)CCCCCCC(=O)Oc1c2c(S(=O)(=O)O)cc3cc(S(=O)(=O)O)c(c(OC(=O)CCCCCCC(=O)O)c13)Cc1c(S(=O)(=O)O)cc3cc(S(=O)(=O)O)c(c(OC(=O)CCCCCCC(=O)O)c3c1OC(=O)CCCCCCC(=O)O)Cc1c(S(=O)(=O)O)cc3cc(S(=O)(=O)O)c(c(OC(=O)CCCCCCC(=O)O)c3c1OC(=O)CCCCCCC(=O)O)Cc1c(S(=O)(=O)O)cc3cc(S(=O)(=O)O)c(c(OC(=O)CCCCCCC(=O)O)c3c1OC(=O)CCCCCCC(=O)O)C2 [KY-294]	16	16	–
CC(=O)Oc1c2c(S(=O)(=O)O)cc3cc(S(=O)(=O)O)c(c(OC(C)=O)c13)C(C(=O)O)c1c(S(=O)(=O)O)cc3cc(S(=O)(=O)O)c(c(OC(C)=O)c3c1OC(C)=O)C(C(=O)O)c1c(S(=O)(=O)O)cc3cc(S(=O)(=O)O)c(c(OC(C)=O)c3c1OC(C)=O)C(C(=O)O)c1c(S(=O)(=O)O)cc3cc(S(=O)(=O)O)c(c(OC(C)=O)c3c1OC(C)=O)C2C(=O)O (centres unmarked) [KY-272]	63	250	–
O=C(O)C1c2c(S(=O)(=O)O)cc3cc(S(=O)(=O)O)c(c(O)c3c2O)C(C(=O)O)c2c(S(=O)(=O)O)cc3cc(S(=O)(=O)O)c(c(O)c3c2O)C(C(=O)O)c2c(S(=O)(=O)O)cc3cc(S(=O)(=O)O)c(c(O)c3c2O)C(C(=O)O)c2c(S(=O)(=O)O)cc3cc(S(=O)(=O)O)c1c(O)c3c2O (centres unmarked) [Y-66]	–	–	IC50 (HSV-2): > 10 µg/mL; IC50 (HSV-1 [1]): > 10 µg/mL
O=S(=O)(O)c1cc2c(O)c(c1)Cc1cc(S(=O)(=O)O)cc(c1O)Cc1cc(S(=O)(=O)O)cc(c1O)Cc1cc(S(=O)(=O)O)cc(c1O)C2 [Y-49]	–	–	IC50 (HSV-2): 10 µg/mL (≈ 13.4 µM); IC50 (HSV-1 [1]): 5 µg/mL (≈ 6.71 µM)
COc1c2c(S(=O)(=O)O)cc3cc(S(=O)(=O)O)c(c(OC)c13)C(C(=O)O)c1c(S(=O)(=O)O)cc3cc(S(=O)(=O)O)c(c(OC)c3c1OC)C(C(=O)O)c1c(S(=O)(=O)O)cc3cc(S(=O)(=O)O)c(c(OC)c3c1OC)C(C(=O)O)c1c(S(=O)(=O)O)cc3cc(S(=O)(=O)O)c(c(OC)c3c1OC)C2C(=O)O (centres unmarked) [KY-284]	16	32	–
O=C(O)CNS(=O)(=O)c1cc2cc(S(=O)(=O)NCC(=O)O)c3c(O)c2c(O)c1Cc1c(S(=O)(=O)NCC(=O)O)cc2cc(S(=O)(=O)NCC(=O)O)c(c(O)c2c1O)Cc1c(S(=O)(=O)NCC(=O)O)cc2cc(S(=O)(=O)NCC(=O)O)c(c(O)c2c1O)Cc1c(S(=O)(=O)NCC(=O)O)cc2cc(S(=O)(=O)NCC(=O)O)c(c(O)c2c1O)C3 [KY-357]	32	63	–
O=S(=O)(O)c1c2c(O)c3c(O)c(c(S(=O)(=O)O)c(O)c3c1O)C(c1ccccc1)c1c(S(=O)(=O)O)c(O)c3c(O)c(S(=O)(=O)O)c(c(O)c3c1O)C(c1ccccc1)c1c(S(=O)(=O)O)c(O)c3c(O)c(S(=O)(=O)O)c(c(O)c3c1O)C(c1ccccc1)c1c(S(=O)(=O)O)c(O)c3c(O)c(S(=O)(=O)O)c(c(O)c3c1O)C2c1ccccc1 (centres unmarked) [KY-85]	32	–	–
CCCC(=O)Oc1c2c(S(=O)(=O)O)cc3cc(S(=O)(=O)O)c(c(OC(=O)CCC)c13)Cc1c(S(=O)(=O)O)cc3cc(S(=O)(=O)O)c(c(OC(=O)CCC)c3c1OC(=O)CCC)Cc1c(S(=O)(=O)O)cc3cc(S(=O)(=O)O)c(c(OC(=O)CCC)c3c1OC(=O)CCC)Cc1c(S(=O)(=O)O)cc3cc(S(=O)(=O)O)c(c(OC(=O)CCC)c3c1OC(=O)CCC)C2 [KY-288]	–	–	HIV-HXB ED100 (HIV-HXB): 8; HIV-RF-II ED100 (HIV-RF-II): 16
O=S(=O)(NO)c1cc2cc(S(=O)(=O)NO)c3c(O)c2c(O)c1Cc1c(S(=O)(=O)NO)cc2cc(S(=O)(=O)NO)c(c(O)c2c1O)Cc1c(S(=O)(=O)NO)cc2cc(S(=O)(=O)NO)c(c(O)c2c1O)Cc1c(S(=O)(=O)NO)cc2cc(S(=O)(=O)NO)c(c(O)c2c1O)C3 [KY-359]	32	63	IC50 (HSV-2): 4.2 µg/mL (≈ 2.9 µM); IC50 (HSV-1 [1]): 5.75 µg/mL (≈ 3.97 µM)
CC=CC(=O)Oc1c2c(S(=O)(=O)O)cc3cc(S(=O)(=O)O)c(c(OC(=O)C=CC)c13)Cc1c(S(=O)(=O)O)cc3cc(S(=O)(=O)O)c(c(OC(=O)C=CC)c3c1OC(=O)C=CC)Cc1c(S(=O)(=O)O)cc3cc(S(=O)(=O)O)c(c(OC(=O)C=CC)c3c1OC(=O)C=CC)Cc1c(S(=O)(=O)O)cc3cc(S(=O)(=O)O)c(c(OC(=O)C=CC)c3c1OC(=O)C=CC)C2 [KY-293]	16	63	–
O=S(=O)(O)c1cc2c(O)c(c1)Cc1cc(S(=O)(=O)O)cc(c1O)Cc1cc(S(=O)(=O)O)cc(c1O)Cc1cc(S(=O)(=O)O)cc(c1O)Cc1cc(S(=O)(=O)O)cc(c1O)Cc1cc(S(=O)(=O)O)cc(c1O)C2 [Y-77]	–	–	IC50 (HSV-2): 11 µg/mL (≈ 9.85 µM); IC50 (HSV-1 [1]): 8 µg/mL (≈ 7.16 µM)
CCCC(=O)Oc1c2c(S(=O)(=O)O)cc3cc(S(=O)(=O)O)c(c(OC(=O)CCC)c13)Cc1c(S(=O)(=O)O)cc3cc(S(=O)(=O)O)c(c(OC(=O)CCC)c3c1OC(=O)CCC)Cc1c(S(=O)(=O)O)cc3cc(S(=O)(=O)O)c(c(OC(=O)CCC)c3c1OC(=O)CCC)Cc1c(S(=O)(=O)O)cc3cc(S(=O)(=O)O)c(c(OC(=O)CCC)c3c1OC(=O)CCC)C2 [KY-281]	16	32	–
O=S(=O)(O)c1c2c(O)c3c(O)c(c(S(=O)(=O)O)c(Br)c3c1Br)C(C(Br)CBr)c1c(S(=O)(=O)O)c(Br)c3c(Br)c(S(=O)(=O)O)c(c(O)c3c1O)C(C(Br)CBr)c1c(S(=O)(=O)O)c(Br)c3c(Br)c(S(=O)(=O)O)c(c(O)c3c1O)C(C(Br)CBr)c1c(S(=O)(=O)O)c(Br)c3c(Br)c(S(=O)(=O)O)c(c(O)c3c1O)C2C(Br)CBr (centres unmarked) [KY-193]	63	500	–
CC(=O)Oc1c2c(S(=O)(=O)O)cc3cc(S(=O)(=O)O)c(c(OC(C)=O)c13)Cc1c(S(=O)(=O)O)cc3cc(S(=O)(=O)O)c(c(OC(C)=O)c3c1OC(C)=O)Cc1c(S(=O)(=O)O)cc3cc(S(=O)(=O)O)c(c(OC(C)=O)c3c1OC(C)=O)Cc1c(S(=O)(=O)O)cc3cc(S(=O)(=O)O)c(c(OC(C)=O)c3c1OC(C)=O)C2 [KY-270]	16	32	–
O=S(=O)(Nc1ccccc1)c1cc2cc(S(=O)(=O)Nc3ccccc3)c3c(O)c2c(O)c1Cc1c(S(=O)(=O)Nc2ccccc2)cc2cc(S(=O)(=O)Nc4ccccc4)c(c(O)c2c1O)Cc1c(S(=O)(=O)Nc2ccccc2)cc2cc(S(=O)(=O)Nc4ccccc4)c(c(O)c2c1O)Cc1c(S(=O)(=O)Nc2ccccc2)cc2cc(S(=O)(=O)Nc4ccccc4)c(c(O)c2c1O)C3 [KY-176]	125	250	–
CCCCCC(=O)Oc1c2c(S(=O)(=O)O)cc3cc(S(=O)(=O)O)c(c(OC(=O)CCCCC)c13)Cc1c(S(=O)(=O)O)cc3cc(S(=O)(=O)O)c(c(OC(=O)CCCCC)c3c1OC(=O)CCCCC)Cc1c(S(=O)(=O)O)cc3cc(S(=O)(=O)O)c(c(OC(=O)CCCCC)c3c1OC(=O)CCCCC)Cc1c(S(=O)(=O)O)cc3cc(S(=O)(=O)O)c(c(OC(=O)CCCCC)c3c1OC(=O)CCCCC)C2 [KY-291]	16	32	–
O=C(O)CCCCCOc1c2c(S(=O)(=O)O)cc3cc(S(=O)(=O)O)c(c(OCCCCCC(=O)O)c13)Cc1c(S(=O)(=O)O)cc3cc(S(=O)(=O)O)c(c(OCCCCCC(=O)O)c3c1OCCCCCC(=O)O)Cc1c(S(=O)(=O)O)cc3cc(S(=O)(=O)O)c(c(OCCCCCC(=O)O)c3c1OCCCCCC(=O)O)Cc1c(S(=O)(=O)O)cc3cc(S(=O)(=O)O)c(c(OCCCCCC(=O)O)c3c1OCCCCCC(=O)O)C2 [KY-307]	8	32	–
O=S(=O)(O)c1cc2cc(S(=O)(=O)O)c3c(O)c2c(O)c1Cc1c(S(=O)(=O)O)cc2cc(S(=O)(=O)O)c(c(O)c2c1O)Cc1c(S(=O)(=O)O)cc2cc(S(=O)(=O)O)c(c(O)c2c1O)Cc1c(S(=O)(=O)O)cc2cc(S(=O)(=O)O)c(c(O)c2c1O)C3 [KY 217]	–	–	Plaque number, dilution 1 (HSV-1 [2]; 0.3 pfu/cell): 2,8; Plaque number, dilution 10^1 (HSV-1 [2]; 0.3 pfu/cell): 3,3; Plaque number, dilution 1 (HSV-1 [2]; 3 pfu/cell): X,X; Plaque number, dilution 10^1 (HSV-1 [2]; 3 pfu/cell): X,X; Plaque number, dilution 10^2 (HSV-1 [2]; 3 pfu/cell): 6,0; Plaque number, dilution 10^3 (HSV-1 [2]; 3 pfu/cell): 5,0
CCCCC(=O)Oc1c2c(S(=O)(=O)O)cc3cc(S(=O)(=O)O)c(c(OC(=O)CCCC)c13)Cc1c(S(=O)(=O)O)cc3cc(S(=O)(=O)O)c(c(OC(=O)CCCC)c3c1OC(=O)CCCC)Cc1c(S(=O)(=O)O)cc3cc(S(=O)(=O)O)c(c(OC(=O)CCCC)c3c1OC(=O)CCCC)Cc1c(S(=O)(=O)O)cc3cc(S(=O)(=O)O)c(c(OC(=O)CCCC)c3c1OC(=O)CCCC)C2 [KY-289]	16	32	–
Oc1c2c(S)cc3cc(S)c(c(O)c13)Cc1c(S)cc3cc(S)c(c(O)c3c1O)Cc1c(S)cc3cc(S)c(c(O)c3c1O)Cc1c(S)cc3cc(S)c(c(O)c3c1O)C2 [KY-171]	125	250	IC50 (HSV-2): 3 µg/mL (≈ 3.17 µM); IC50 (HSV-1 [1]): 2.5 µg/mL (≈ 2.64 µM)
CCC(=O)Oc1c2c(S(=O)(=O)O)cc3cc(S(=O)(=O)O)c(c(OC(=O)CC)c13)Cc1c(S(=O)(=O)O)cc3cc(S(=O)(=O)O)c(c(OC(=O)CC)c3c1OC(=O)CC)Cc1c(S(=O)(=O)O)cc3cc(S(=O)(=O)O)c(c(OC(=O)CC)c3c1OC(=O)CC)Cc1c(S(=O)(=O)O)cc3cc(S(=O)(=O)O)c(c(OC(=O)CC)c3c1OC(=O)CC)C2 [KY-276]	16	32	–
